Source: ChEMBL document CHEMBL4819026, “4-Oxoquinolines and monoamine oxidase: When tautomerism matters” (Eur J Med Chem, 2021)
pIC50: −log10 of the molar value.

Key:
[1] = molecular target: T1, Amine oxidase [flavin-containing] B (Homo sapiens, UniProt P27338); test: Inhibition of recombinant human MAOB using kynuramine as substrate at 10 uM measured for 30 mins by fluorescence spectrophotometric assay relative to control; conditions: 0.5 h
T1 sequence (P27338 whole entry): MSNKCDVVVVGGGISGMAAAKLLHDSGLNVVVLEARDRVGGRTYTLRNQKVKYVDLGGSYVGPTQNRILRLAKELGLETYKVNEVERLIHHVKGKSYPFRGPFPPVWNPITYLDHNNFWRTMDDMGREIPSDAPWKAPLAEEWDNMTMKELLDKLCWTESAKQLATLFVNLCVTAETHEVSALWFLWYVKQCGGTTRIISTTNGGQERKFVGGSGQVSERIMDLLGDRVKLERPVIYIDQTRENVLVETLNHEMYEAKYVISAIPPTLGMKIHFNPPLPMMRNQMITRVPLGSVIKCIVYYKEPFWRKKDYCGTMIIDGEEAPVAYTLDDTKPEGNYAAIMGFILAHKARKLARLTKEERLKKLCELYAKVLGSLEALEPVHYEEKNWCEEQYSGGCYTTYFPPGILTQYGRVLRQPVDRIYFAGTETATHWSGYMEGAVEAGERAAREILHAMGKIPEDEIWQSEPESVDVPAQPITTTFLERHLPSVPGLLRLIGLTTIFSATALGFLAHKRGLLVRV

[2] = molecular target: T2, Amine oxidase [flavin-containing] A (Homo sapiens, UniProt P21397); test: Inhibition of recombinant human MAOA using kynuramine as substrate at 10 uM measured for 30 mins by fluorescence spectrophotometric assay relative to control; conditions: 0.5 h
T2 sequence (P21397 whole entry): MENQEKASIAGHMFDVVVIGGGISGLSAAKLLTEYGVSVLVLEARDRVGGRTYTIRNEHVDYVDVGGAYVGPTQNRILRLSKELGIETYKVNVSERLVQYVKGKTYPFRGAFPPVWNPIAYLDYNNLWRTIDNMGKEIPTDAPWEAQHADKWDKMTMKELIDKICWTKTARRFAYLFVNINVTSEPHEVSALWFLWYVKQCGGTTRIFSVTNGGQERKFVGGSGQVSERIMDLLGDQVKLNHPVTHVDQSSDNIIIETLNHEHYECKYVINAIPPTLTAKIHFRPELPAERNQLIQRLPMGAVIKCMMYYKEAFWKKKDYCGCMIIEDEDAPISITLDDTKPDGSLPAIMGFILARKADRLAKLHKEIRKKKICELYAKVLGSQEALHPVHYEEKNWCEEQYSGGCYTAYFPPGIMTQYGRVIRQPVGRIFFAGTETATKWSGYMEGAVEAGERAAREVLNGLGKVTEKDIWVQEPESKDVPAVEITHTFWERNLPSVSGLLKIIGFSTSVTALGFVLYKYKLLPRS

[3] = tested on: SH-SY5Y; test: Cytotoxicity against differentiated human SH-SY5Y cells assessed as cell viability at 1 to 10 uM after 24 hrs by SRB assay relative to control; format: cell-based; conditions: dose 1-10 µM
[4] = species: Homo sapiens; test: Selectivity index, ratio of IC50 for inhibition of human MAOA to IC50 for inhibition of human MAOB
[5] = molecular target: T1, Amine oxidase [flavin-containing] B; test: Inhibition of recombinant human MAOB using kynuramine as substrate measured for 30 mins by fluorescence spectrophotometric assay
[6] = Cytotoxicity against differentiated human SH-SY5Y cells assessed as cell viability at 10 uM after 24 hrs by resazurin reduction assay relative to control; format: cell-based; conditions: read-out: Activity
[7] = tested on: SH-SY5Y; test: Cytotoxicity against differentiated human SH-SY5Y cells assessed as cell viability at 1 to 10 uM after 24 hrs by neutral red uptake assay relative to control; format: cell-based; conditions: dose 1-10 µM
[8] = molecular target: T2, Amine oxidase [flavin-containing] A; test: Inhibition of recombinant human MAOA using kynuramine as substrate measured for 30 mins by fluorescence spectrophotometric assay

For `Cc1ccc(NC(=O)c2c[nH]c3ccccc3c2=O)cc1C`, the inhibition at 10 µM [1] was 35% and the inhibition at 10 µM [2] was 15%.

For `Cn1cc(C(=O)Nc2ccc(Cl)c(Cl)c2)c(=O)c2ccccc21`, the Activity [3] was “Non-Toxic”, the Ratio IC50 [4] was greater than 1890 and the inhibition at 10 µM [2] was 38%. The pIC50 [5] was 5.28, the viability at 24 h, 10 µM [6] was greater than 90% and the Activity [7] was “Non-Toxic”.

`O=C(Nc1cccc(Cl)c1)c1c[nH]c2ccccc2c1=O` gave an inhibition at 10 µM [1] of 40% and an inhibition at 10 µM [2] of 8%.

In the case of `O=C(Nc1ccc(Cl)c(Cl)c1)c1c[nH]c2ccccc2c1=O`, the Activity [3] was “Non-Toxic”, the Ratio IC50 [4] was 157 and the pIC50 [5] was 4.95. For the same molecule, the pIC50 [8] was 2.76 and the Activity [7] was “Non-Toxic”.

For `Cc1ccc(NC(=O)c2cn(C)c3ccccc3c2=O)cc1C`, the Activity [3] was “Non-Toxic”, the Ratio IC50 [4] was 19.6 and the pIC50 [5] was 4.08. For the same molecule, the pIC50 [8] was 2.94 and the Activity [7] was “Non-Toxic”.

With `Cn1cc(C(=O)Nc2cccc(Cl)c2)c(=O)c2ccccc21` the Activity [3] was “Non-Toxic”, the Ratio IC50 [4] was 258 and the pIC50 [5] was 4.54. For the same molecule, the pIC50 [8] was 2.13, the viability at 24 h, 10 µM [6] was greater than 90% and the Activity [7] was “Non-Toxic”.
